The source made the active and inactive calls. The rule behind the calls is not given here.
Key:
Bacteria [1] = assay: Inhibition of recombinant metallo-beta-lactamase L-1 (unknown origin) expressed in Escherichia coli BL21 (DE3) cells using cefazolin as substrate at 20 uM by spectrometric analysis relative to control
Bacteria [2] = assay: Inhibition of recombinant serine beta lactamase OXA-48 (unknown origin) expressed in Escherichia coli BL21 (DE3) cells using meropenem as substrate at 20 uM by spectrometric analysis relative to control
[3] = Inhibition of recombinant serine beta lactamase OXA-48 (unknown origin) expressed in Escherichia coli BL21 (DE3) cells using meropenem as substrate by spectrometric analysis; design: species or system Bacteria
[4] = biological target: Metallo-beta-lactamase type 2 (Bacteria) (UniProt C7C422); assay: Inhibition of recombinant NDM-1 (unknown origin) expressed in Escherichia coli BL21 (DE3) cells assessed as reduction in residual activity incubated for 20 hrs; conditions: dose 0.3-5 µM
Metallo-beta-lactamase type 2 (Bacteria), sequence (C7C422 whole entry): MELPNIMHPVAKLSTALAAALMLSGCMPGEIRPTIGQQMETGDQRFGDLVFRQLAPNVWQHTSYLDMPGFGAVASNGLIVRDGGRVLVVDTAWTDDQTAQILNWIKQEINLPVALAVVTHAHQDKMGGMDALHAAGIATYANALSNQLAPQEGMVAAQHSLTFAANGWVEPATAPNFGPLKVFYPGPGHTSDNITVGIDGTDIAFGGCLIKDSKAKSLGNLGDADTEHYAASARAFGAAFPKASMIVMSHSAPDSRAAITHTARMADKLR

Bacteria [5] = assay: Inhibition of recombinant serine beta lactamase KPC-2 (unknown origin) expressed in Escherichia coli BL21 (DE3) cells assessed as reduction in residual activity incubated for 360 min; conditions: dose 0.25-5 µM
[6] = biological target: Metallo-beta-lactamase type 2 (Bacteria) (UniProt C7C422); assay: Inhibition of recombinant NDM-1 (unknown origin) expressed in Escherichia coli BL21 (DE3) cells assessed as reduction in residual activity at 0.3 to 5 uM; conditions: dose 0.3-5 µM, time 20.0 hrs, TDE = time-dependent effect
[7] = biological target: Metallo-beta-lactamase type 2 (Bacteria) (UniProt C7C422); assay: Inhibition of recombinant NDM-1 (unknown origin) expressed in Escherichia coli BL21 (DE3) cells assessed as maximal inhibition at 5 uM incubated for 5 hrs
Bacteria [8] = assay: Inhibition of recombinant IMP-1 (unknown origin) expressed in Escherichia coli BL21 (DE3) cells assessed as maximal inhibition at 5 uM incubated for 10 hrs
Bacteria [9] = assay: Inhibition of recombinant serine beta lactamase KPC-2 (unknown origin) expressed in Escherichia coli BL21 (DE3) cells assessed as maximal inhibition at 5 uM incubated for 2.5 hrs
[10] = biological target: Metallo-beta-lactamase type 2 (Bacteria) (UniProt C7C422); assay: Inhibition of recombinant NDM-1 (unknown origin) expressed in Escherichia coli BL21 (DE3) cells using meropenem as substrate assessed as reduction in residual activity; conditions: dose 0.075-20 µM
Bacteria [11] = assay: Inhibition of recombinant metallo-beta-lactamase IMP-1 (unknown origin) expressed in Escherichia coli BL21 (DE3) cells using cefazolin as substrate assessed as residual activity at 20 uM relative to control
Bacteria [12] = assay: Inhibition of recombinant serine beta lactamase KPC-2 (unknown origin) expressed in Escherichia coli BL21 (DE3) cells using cefazolin as substrate assessed as residual activity at 20 uM relative to control
[13] = biological target: Metallo-beta-lactamase type 2 (Bacteria) (UniProt C7C422); assay: Irreversible inhibition of recombinant NDM-1 (unknown origin) expressed in Escherichia coli BL21 (DE3) cells using meropenem as substrate assessed as reduction in residual activity at 5 uM preincubated for 6 hrs followed by dialysis and measured after 24 hrs
Bacteria [14] = assay: Irreversible inhibition of recombinant metallo-beta-lactamase IMP-1 (unknown origin) expressed in Escherichia coli BL21 (DE3) cells using cefazolin as substrate assessed as reduction in residual activity at 5 uM preincubated for 6 hrs followed by dialysis and measured after 24 hrs
Bacteria [15] = assay: Irreversible inhibition of recombinant serine beta lactamase KPC-2 (unknown origin) expressed in Escherichia coli BL21 (DE3) cells using cefazolin as substrate assessed as reduction in residual activity at 5 uM preincubated for 6 hrs followed by dialysis and measured after 24 hrs
Escherichia coli [16] = assay: Synergistic antibacterial activity against Escherichia coli BL21 (DE3) harboring NDM-1 assessed as meropenem MIC at 64 microg/ml measured after 16 hrs by CLSI protocol based broth microdilution method (reference value: 256 microg/ml); format: functional; conditions: dose 64 µg/ml
Escherichia coli [17] = assay: Synergistic antibacterial activity against Escherichia coli BL21 (DE3) harboring serine beta lactamase KPC-2 assessed as meropenem MIC at 64 microg/ml measured after 16 hrs by CLSI protocol based broth microdilution method (reference value: 16 microg/ml); format: functional; conditions: dose 64 µg/ml
Escherichia coli [18] = assay: Synergistic antibacterial activity against Escherichia coli BL21 (DE3) harboring serine beta lactamase OXA-48 assessed as meropenem MIC at 64 microg/ml measured after 16 hrs by CLSI protocol based broth microdilution method (reference value: 1 microg/ml); format: functional; conditions: dose 64 µg/ml
Escherichia coli [19] = assay: Synergistic antibacterial activity against Escherichia coli clinical isolate 06 assessed as meropenem MIC at 64 microg/ml measured after 16 hrs by CLSI protocol based broth microdilution method (reference value: 128 microg/ml); format: functional; conditions: dose 64 µg/ml
Escherichia coli [20] = assay: Synergistic antibacterial activity against Escherichia coli clinical isolate 10 assessed as meropenem MIC at 64 microg/ml measured after 16 hrs by CLSI protocol based broth microdilution method (reference value: 512 microg/ml); format: functional; conditions: dose 64 µg/ml
Escherichia coli [21] = assay: Synergistic antibacterial activity against Escherichia coli clinical isolate 24 assessed as meropenem MIC at 64 microg/ml measured after 16 hrs by CLSI protocol based broth microdilution method (reference value: 256 microg/ml); format: functional; conditions: dose 64 µg/ml
Escherichia coli [22] = assay: Synergistic antibacterial activity against Escherichia coli clinical isolate 06 assessed as fold decrease in meropenem MIC at 64 microg/ml measured after 16 hrs by CLSI protocol based broth microdilution method; format: functional; conditions: dose 64 µg/ml
Escherichia coli [23] = assay: Synergistic antibacterial activity against Escherichia coli clinical isolate 08 assessed as fold decrease in meropenem MIC at 64 microg/ml measured after 16 hrs by CLSI protocol based broth microdilution method; format: functional; conditions: dose 64 µg/ml
Escherichia coli [24] = assay: Synergistic antibacterial activity against Escherichia coli clinical isolate 10 assessed as fold decrease in meropenem MIC at 64 microg/ml measured after 16 hrs by CLSI protocol based broth microdilution method; format: functional; conditions: dose 64 µg/ml
Escherichia coli [25] = assay: Synergistic antibacterial activity against Escherichia coli BL21 (DE3) harboring metallo-beta-lactamase IMP-1 assessed as decrease in bacterial colony at 128 microg/ml incubated for 12 hrs in presence of meropenem by imaging analysis; format: functional, organism-based; conditions: dose 128.0 µg/ml
Escherichia coli [26] = assay: Antibacterial activity against Escherichia coli BL21 (DE3) harboring NDM-1 assessed as inhibition of bacterial growth upto 512 microg/ml by microdilution checkerboard assay; format: functional, organism-based; conditions: dose <= 512.0 µg/ml
Escherichia coli [27] = assay: Antibacterial activity against Escherichia coli BL21 (DE3) harboring metallo-beta-lactamase IMP-1 assessed as inhibition of bacterial growth upto 512 microg/ml by microdilution checkerboard assay; format: functional, organism-based; conditions: dose <= 512.0 µg/ml
Escherichia coli [28] = assay: Antibacterial activity against Escherichia coli BL21 (DE3) harboring serine beta lactamase KPC-2 assessed as inhibition of bacterial growth upto 512 microg/ml by microdilution checkerboard assay; format: functional, organism-based; conditions: dose <= 512.0 µg/ml
Escherichia coli [29] = assay: Synergistic antibacterial activity against Escherichia coli BL21 (DE3) harboring NDM-1 assessed as reduction in meropenem MIC upto 256 microg/ml in presence of meropenem by microdilution checkerboard assay; format: functional, organism-based; conditions: dose <= 256.0 µg/ml
Escherichia coli [30] = assay: Synergistic antibacterial activity against Escherichia coli BL21 (DE3) harboring serine beta lactamase KPC-2 assessed as reduction in meropenem MIC upto 256 microg/ml in presence of meropenem by microdilution checkerboard assay; format: functional, organism-based; conditions: dose <= 256.0 µg/ml
Escherichia coli [31] = assay: Synergistic antibacterial activity against Escherichia coli BL21 (DE3) harboring serine beta lactamase OXA-48 assessed as reduction in meropenem MIC upto 256 microg/ml in presence of meropenem by microdilution checkerboard assay; format: functional, organism-based; conditions: dose <= 256.0 µg/ml
[32] = Cytotoxicity against mouse L929 cells assessed as cell viability upto 200 uM incubated for 48 hrs by CCK8 assay relative to control; format: toxicity, cell-based; conditions: read-out: Activity

O=C(CCCc1ccccc1)NOC(=O)OCc1ccccc1
inhibition (Bacteria [1]): < 42%
inhibition (Bacteria [2]): > 90%
IC50 [3]: 1.01 µM
inhibition [4]: Dose-Dependent Effect
inhibition (Bacteria [5]): Dose-Dependent Effect
inhibition [6]: Tde
inhibition [7]: Active
inhibition (Bacteria [8]): Active
inhibition (Bacteria [9]): Active
inhibition [10]: Dose-Dependent Effect
Activity (Bacteria [11]): < 10%
Activity (Bacteria [12]): < 10%
inhibition [13]: Active
inhibition (Bacteria [14]): Active
inhibition (Bacteria [15]): Active
MIC (Escherichia coli [16]): 32 mg/L
MIC (Escherichia coli [17]): 4 mg/L
MIC (Escherichia coli [18]): 0.5 mg/L
MIC (Escherichia coli [19]): 64 mg/L
MIC (Escherichia coli [20]): 64 mg/L
MIC (Escherichia coli [21]): 128 mg/L
fold change (FC) (Escherichia coli [22]): 2
fold change (FC) (Escherichia coli [23]): 2
fold change (FC) (Escherichia coli [24]): 2
Activity (Escherichia coli [25]): Active
Activity (Escherichia coli [26]): inactive
Activity (Escherichia coli [27]): inactive
Activity (Escherichia coli [28]): inactive
Activity (Escherichia coli [29]): Active
Activity (Escherichia coli [30]): Active
Activity (Escherichia coli [31]): Active
viability at 48 h, up to 200 µM [32]: > 80%

Reference: ChEMBL document CHEMBL5518172, “Discovery of hydroxamate as a promising scaffold dually inhibiting metallo- and serine-β-lactamases” (Eur J Med Chem, 2024)
